Read-outs that look alike come from different tables or passages of the source.
How the values were obtained:
[1] = system: HT-1080 (human lung fibrosarcoma); assay: Cytotoxicity, MTT assay, HT-1080; type: cell-based; conditions: 72 h exposure; for IC50: Homo sapiens, HT-1080, read-out: HT-1080 IC50 (MTT)
Description: (§1) Reduction takes place only when mitochondrial reductase enzymes are active, and therefore, conversion is directly related to the number of viable cells which can be quantified by the absorbance of the solution (between λ = 500 and 600 nm) using a spectrophotometer.

MH-22A (mouse hepatoma) [2] = assay: Cytotoxicity, MTT assay, MH-22A; type: cell-based; conditions: 72 h exposure; for IC50: Mus musculus, read-out: MH-22A IC50 (MTT)
Description: as §1

[3] = system: NIH3T3 (mouse embryonic fibroblast); assay: Basal cytotoxicity test, Neutral Red Uptake (NRU) assay; conditions: for IC50: Mus musculus, NIH3T3, 24 h
Description: The NRU cytotoxicity assay procedure is based on the ability of viable cells to incorporate and bind neutral red, a supravital dye.
Balb/c NIH 3T3 (mouse Swiss albino embryo fibroblast, ATCC® CRL-1658™) cells (9000 cells/well) were placed into 96-well plates for 24 h in Dulbecco's modified Eagle's medium (DMEM) containing 5% fetal bovine serum. Then, the cells were exposed to the test compound over a range of seven concentrations (1000, 316, 100, 31, 10, 3, and 1 μg/ml) for 24 h. Untreated cells were used as a control. After 24 h, the medium was removed from all plates. Then, 150 μl of neutral red solution was added (0.05 mg/ml NR in DMEM 24 h preincubated at 37°C and then filtered before use through a 0.22 μm syringe filter). Plates were incubated for 3 h, and then, the cells were washed three times with PBS. The dye within viable cells was released by extraction with a mixture of acetic acid, ethanol, and water (1 : 50 : 49). The absorbance of neutral red was measured using a spectrophotometer multiplate reader (Tecan Infinite M1000) at 540 nm. The optical density (OD) was calculated using the following formula: OD (treated cells) × 100/OD (control cells). The IC50 values were calculated using the GraphPad Prism® 3.0 program.

NIH3T3 = assay: in vitro; conditions: for LD50 (calculated, NIH3T3): mouse
Description: Data from the in vitro tests were used for estimating the starting dose for acute oral systemic toxicity tests in the rodent. The in vivo starting dose is an estimated LD50 value calculated by inserting the in vitroIC50 value into a regression formula: log LD50 (mM/kg) = 0.439 log IC50 (mM) + 0.621 [23–25]. […] Using an alternative in vitro method allows the comparison between possibly toxic new compounds and selecting compounds for further study vastly reducing the number of animal experiments.
Additionally, the compound influence on “normal” mouse fibroblasts (NIH3T3) was estimated for the studies of structure-activity relationships and exploration of the effect of substituents.

MH-22A (mouse hepatoma) [4] = assay: Cytotoxicity, crystal violet (CV) assay, MH-22A; type: cell-based; conditions: Mus musculus, 72 h exposure, read-out: MH-22A IC50 (CV)
Description: After incubation, the staining solution was removed. The cells were washed 4 times with water.

[5] = system: HT-1080 (human lung fibrosarcoma); assay: Cytotoxicity, crystal violet (CV) assay, HT-1080; conditions: Homo sapiens, HT-1080, 72 h, read-out: HT-1080 IC50 (CV)
[6] = read-out: NIH3T3 IC50 (NR), Table 2, 24 h exposure

Compound	IC50 ([1]; Table 1) [µg/mL]	IC50 (MH-22A (mouse hepatoma) [2]; Table 1) [µg/mL]	IC50 [5] [µg/mL]	IC50 ([3]; read-out: NIH3T3 IC50 (NR)) [µg/mL]	IC50 ([1]; Table 2) [µg/mL]	IC50 (MH-22A (mouse hepatoma) [2]; Table 2) [µg/mL]	IC50 (MH-22A (mouse hepatoma) [4]; Table 2) [µg/mL]	IC50 [3, 6] [µg/mL]	also measured
1,1'-((4-(2-(Difluoromethoxy)phenyl)-3,5-bis(methoxycarbonyl)-1,4-dihydropyridine-2,6-diyl)bis(methylene))bis(1-methylpiperidin-1-ium) diperchlorate [compound 9]	–	–	–	–	–	–	–	–	HT-1080 IC50 (MTT) ([1]; Table 1): ∗ (∗: not detected); MH-22A IC50 (MTT) (MH-22A (mouse hepatoma) [2]; Table 1): ∗ (∗: not detected); NIH3T3 IC50 (NR) ([3]; Table 1, 24 h exposure): ∗ (∗: not detected)
CCOC(=O)C1=C(C[n+]2ccc(C)cc2)NC(C[n+]2ccc(C)cc2)=C(C(=O)OCC)C1c1ccccc1.[Br-].[Br-] [compound 2, 1,1'-((3,5-Bis(ethoxycarbonyl)-4-phenyl-1,4-dihydropyridine-2,6-diyl)bis(methylene))-bis(4-methylpyridin-1-ium) dibromide]	> 740	> 100	> 100	> 1000	–	–	–	–	LD50 (calculated, NIH3T3) (NIH3T3): > 2000 mg/kg; IC50 (MH-22A (mouse hepatoma) [4]; Table 1): > 100 µg/mL
CCOC(=O)C1=C(C[n+]2ccc(N)cc2)NC(C[n+]2ccc(N)cc2)=C(C(=O)OCC)C1c1ccccc1.[Br-].[Br-] [compound 3, 1,1'-((3,5-Bis(ethoxycarbonyl)-4-phenyl-1,4-dihydropyridine-2,6-diyl)bis(methylene))-bis(4-aminopyridin-1-ium) dibromide]	441 ± 46	> 740	–	> 1000	–	–	–	–	LD50 (calculated, NIH3T3) (NIH3T3): > 2000 mg/kg
CCOC(=O)C1=C(C[n+]2ccc(N(C)C)cc2)NC(C[n+]2ccc(N(C)C)cc2)=C(C(=O)OCC)C1c1ccccc1.[Br-].[Br-] [compound 4, 1,1'-((3,5-Bis(ethoxycarbonyl)-4-phenyl-1,4-dihydropyridine-2,6-diyl)bis(methylene))-bis(4-(dimethylamino)pyridin-1-ium) dibromide]	324 ± 29	608 ± 49	–	> 1000	–	–	–	–	LD50 (calculated, NIH3T3) (NIH3T3): > 2000 mg/kg
CCOC(=O)C1=C(C[n+]2cccc(C)c2)NC(C[n+]2cccc(C)c2)=C(C(=O)OCC)C1c1ccccc1.[Br-].[Br-] [compound 5, 1,1'-((3,5-Bis(ethoxycarbonyl)-4-phenyl-1,4-dihydropyridine-2,6-diyl)bis(methylene))-bis(3-methylpyridin-1-ium) dibromide]	> 740	> 100	–	> 1000	–	–	–	–	LD50 (calculated, NIH3T3) (NIH3T3): > 2000 mg/kg
CCOC(=O)C1=C(C[n+]2ccccc2)NC(C[n+]2ccccc2)=C(C(=O)OCC)C1c1ccccc1C(F)(F)F.[Br-].[Br-] [compound 6, 1,1'-((3,5-Bis(ethoxycarbonyl)-4-(2-(trifluoromethyl)phenyl)-1,4-dihydropyridine-2,6-diyl)bis(methylene))bis(pyridin-1-ium) dibromide]	> 100	> 100	> 100	> 1000	–	–	–	–	LD50 (calculated, NIH3T3) (NIH3T3): > 2000 mg/kg; IC50 (MH-22A (mouse hepatoma) [4]; Table 1): > 100 µg/mL
CCCCCCCCCCCCOC(=O)C1=C(C[n+]2ccccc2)NC(C[n+]2ccccc2)=C(C(=O)OCCCCCCCCCCCC)C1c1ccc(O)cc1.[Br-].[Br-] [compound 18, 1,1'-((3,5-Bis((dodecyloxy)carbonyl)-4-(4-hydroxyphenyl)-1,4-dihydropyridine-2,6-diyl)bis(methylene))bis(pyridin-1-ium) dibromide]	10 ± 2	16 ± 2	4.3 ± 0.6	95 ± 7	–	–	–	–	IC50 (MH-22A (mouse hepatoma) [4]; Table 1): 3.4 ± 0.6 µg/mL
CCCCCCCCCCCCOC(=O)C1=C(C[n+]2ccc(C)cc2)NC(C[n+]2ccc(C)cc2)=C(C(=O)OCCCCCCCCCCCC)C1c1ccc(O)cc1.[Br-].[Br-] [compound 19, 1,1'-((3,5-Bis((dodecyloxy)carbonyl)-4-(4-hydroxyphenyl)-1,4-dihydropyridine-2,6-diyl)bis(methylene))bis(4-methylpyridin-1-ium) dibromide]	22 ± 5	30 ± 8	32 ± 8	44 ± 11	–	–	–	–	IC50 (MH-22A (mouse hepatoma) [4]; Table 1): 21 ± 3 µg/mL
CCCCCCCCCCCCOC(=O)C1=C(C[N+](C)(C)CCCCCCCCCCCC)NC(C[N+](C)(C)CCCCCCCCCCCC)=C(C(=O)OCCCCCCCCCCCC)C1c1ccccc1.[O-][Cl+3]([O-])([O-])[O-].[O-][Cl+3]([O-])([O-])[O-] [compound 20, N,N'-((3,5-bis((dodecyloxy)carbonyl)-4-phenyl-1,4-dihydropyridine-2,6-diyl)bis(methylene))bis(N,N-dimethyldodecan-1-aminium) diperchlorate]	3 ± 0.4	10 ± 2	3 ± 0.3	–	–	–	–	–	IC50 (MH-22A (mouse hepatoma) [4]; Table 1): 10 ± 2 µg/mL; IC50 ([3]; read-out: NIH3T3 IC50 (NR), Table 1, 24 h exposure): 19 ± 6 µg/mL
O=C1CC(c2ccccc2)C(C(=O)OCCCCC(F)(F)C(F)(F)C(F)(F)C(F)(F)C(F)(F)C(F)(F)C(F)(F)C(F)(F)F)=C(C[n+]2ccccc2)N1.[Br-] (centres unmarked) [compound 31, 1-((3-(((5,5,6,6,7,7,8,8,9,9,10,10,11,11,12,12,12-Heptadecafluorododecyl)oxy)carbonyl)-6-oxo-4-phenyl-1,4,5,6-tetrahydropyridin-2-yl)methyl)pyridin-1-ium bromide]	–	–	3 ± 0.3	–	3 ± 0.2	3 ± 0.6	3 ± 1	15 ± 2	–
O=C1CC(c2ccccc2)C(C(=O)OCCCCC(F)(F)C(F)(F)C(F)(F)C(F)(F)C(F)(F)C(F)(F)C(F)(F)C(F)(F)F)=C(C[n+]2ccccc2)N1.[O-][Cl+3]([O-])([O-])[O-] (centres unmarked) [compound 32, 1-((3-(((5,5,6,6,7,7,8,8,9,9,10,10,11,11,12,12,12-Heptadecafluorododecyl)oxy)carbonyl)-6-oxo-4-phenyl-1,4,5,6-tetrahydropyridin-2-yl)methyl)pyridin-1-ium perchlorate]	–	–	3 ± 0.3	–	3 ± 0.5	3 ± 0.2	2 ± 0.3	15 ± 3	–
CCCCCCCCCCCC[N+](C)(C)CC1=C(C(=O)OC)C(c2ccccc2)CC(=O)N1 (centres unmarked) [compound 33, N-((3-(methyloxycarbonyl)-6-oxo-4-phenyl-1,4,5,6-tetrahydropyridin-2-yl)methyl-N,N-dimethyldodecan-1-aminium bromide]	–	–	2 ± 0.4	–	1 ± 0.2	2 ± 0.6	2 ± 0.1	4 ± 1	–
CCCCCCCCCCCCOC(=O)C1=C(C[N+](C)(C)CCCCCCCCCCCC)NC(=O)CC1c1ccccc1 (centres unmarked) [compound 34, N-((3-(dodecyloxycarbonyl)-6-oxo-4-phenyl-1,4,5,6-tetrahydropyridin-2-yl)methyl-N,N-dimethyldodecan-1-aminium bromide]	–	–	2 ± 0.2	–	2 ± 0.6	< 1	3 ± 0.8	6 ± 2	–
CCCCCCCCCCCC[N+](C)(C)CC1=C(C(=O)OCCCCC(F)(F)C(F)(F)C(F)(F)C(F)(F)C(F)(F)C(F)(F)C(F)(F)C(F)(F)F)C(c2ccccc2)CC(=O)N1 (centres unmarked) [compound 35, N-((3-((5,5,6,6,7,7,8,8,9,9,10,10,11,11,12,12,12-Heptadecafluorododecyloxy)carbonyl)-6-oxo-4-phenyl-1,4,5,6-tetrahydropyridin-2-yl)methyl-N,N-dimethyldodecan-1-aminium bromide]	–	–	3 ± 0.3	–	30 ± 11	30 ± 8	26 ± 6	27 ± 9	–
CCCCCCCCCCCC[N+](C)(C)CC1=C(C(=O)OC)CCC(=O)N1 [compound 36, N-((3-(methyloxycarbonyl)-6-oxo-1,4,5,6-tetrahydropyridin-2-yl)methyl-N,N-dimethyldodecan-1-aminium bromide]	–	–	2 ± 0.2	–	1 ± 0.2	16 ± 3	18 ± 3	63 ± 11	–
CCCCCCCCCCCCOC(=O)C1=C(C[N+](C)(C)CCCCCCCCCCCC)NC(=O)CC1 [compound 37, N-((3-(dodecyloxycarbonyl)-6-oxo-1,4,5,6-tetrahydropyridin-2-yl)methyl-N,N-dimethyldodecan-1-aminium bromide]	–	–	2 ± 0.5	–	3 ± 0.4	1 ± 0.2	3 ± 0.6	7 ± 1	–
CCCCCCCCCCCCCCCCOC(=O)/C=C(\N)C[N+](C)(C)CCCCCCCCCCCC [compound 46, (Z,E)-N-(2-Amino-4-(hexadecyloxy)-4-oxobut-2-en-1-yl)-N,N-dimethyldodecan-1-aminium iodide]	–	–	–	–	–	–	–	–	NIH3T3 LD50 (NIH3T3; Table 3, calculated from NIH3T3 IC50 by regression formula): 637 mg/kg; IC50 in NIH3T3 cell lines [3]: around 30 μg/ml; NIH3T3 IC50 (NR) ([3]; Table 3, 24 h exposure): 34 ± 8 µg/mL

From PMC7790557, “Pleiotropic Properties of Amphiphilic Dihydropyridines, Dihydropyridones, and Aminovinylcarbonyl Compounds” (Oxidative Medicine and Cellular Longevity, 2020)
